Results taken from patent publication US20250127801A1, “BRIDGED TRICYCLIC CARBAMOYLPYRIDONE COMPOUNDS AND USES THEREOF” (priority 2023, published 2025).
Read-outs that look alike come from different tables or passages of the source.

Columns and labels:
[1] = in vitro; details: human; for CC50 at 5 days: uninfected MT-4 cells
[2] = system: HIV-1 (IIIB); assay: microbe, parasite or virus in culture; format: cell-based
[3] = Human immunodeficiency virus 1, MT4, 120 h, HIV-1 (IIIB) replication in MT-4 cells, 5 days incubation, Cell Titer Glo, read-out: MT4 EC50
[4] = Human immunodeficiency virus 1, IIIB, MT4, 120 h, read-out: MT4 EC50 (nM)

| EC50 [2, 3] [nM] | SMILES | CC50 at 5 days [1] [µM] | CC50 [1] [µM] | EC50 [2, 4] [nM] |
| --- | --- | --- | --- | --- |
| 2.93 | COC1=NO[C@@]2(CC[C@H](C)N3C[C@H]2n2cc(C(=O)NCc4ccc(F)cc4F)c(=O)c(OCOC(=O)N(C)C[C@@H]4CCCN4C(=O)OCOP(=O)(O)O)c2C3=O)C1 [Compound 16, (phosphonooxy)methyl (2S)-2-(((((((3′S,5S,7′R)-10′-((2,4-difluorobenzyl)carbamoyl)-3-methoxy-3′-methyl-1′,11′-dioxo-1′,4′,5′,11′-tetrahydro-3′H,4H,7′H-spiro[isoxazole-5,6′-[2,7]methanopyrido[1,2-a][1,4]diazonin]-12′-yl)oxy)methoxy)carbonyl)(methyl)amino)methyl)pyrrolidine-1-carboxylate] | 16 |  |  |
| 12.3 | COC1=NO[C@@]2(CC[C@H](C)N3C[C@H]2n2cc(C(=O)NCc4ccc(F)cc4F)c(=O)c(OCOP(=O)(O)OCc4ccccc4)c2C3=O)C1 [Compound 18, benzyl ((((3′S,5S,7′R)-10′-((2,4-difluorobenzyl)carbamoyl)-3-methoxy-3′-methyl-1′,11′-dioxo-1′,4′,5′,11′-tetrahydro-3′H,4H,7′H-spiro[isoxazole-5,6′-[2,7]methanopyrido[1,2-a][1,4]diazonin]-12′-yl)oxy)methyl) hydrogen phosphate] | ≥ 50 |  |  |
|  | COC1=NO[C@@]2(CC[C@H](C)N3C[C@H]2n2cc(C(=O)NCc4ccc(F)cc4F)c(=O)c(OCOC(=O)CC(C)(C)c4c(CC(=O)O)cc(C)cc4OP(=O)(O)O)c2C3=O)C1 [Compound 21, 2-(2-(4-((((3′S,5S,7′R)-10′-((2,4-difluorobenzyl)carbamoyl)-3-methoxy-3′-methyl-1′,11′-dioxo-1′,4′,5′,11′-tetrahydro-3′H,4H,7′H-spiro[isoxazole-5,6′-[2,7]methanopyrido[1,2-a][1,4]diazonin]-12′-yl)oxy)methoxy)-2-methyl-4-oxobutan-2-yl)-5-methyl-3-(phosphonooxy)phenyl)acetic acid] |  | 12.6 | 2.54 |
|  | COC1=NO[C@@]2(CC[C@H](C)N3C[C@H]2n2cc(C(=O)NCc4ccc(F)cc4F)c(=O)c(OC(=O)Cc4ccc(OP(=O)(O)O)cc4)c2C3=O)C1 [Compound 29, (3′S,5S,7′R)-10′-((2,4-difluorobenzyl)carbamoyl)-3-methoxy-3′-methyl-1′,11′-dioxo-1′,4′,5′,11′-tetrahydro-3′H,4H,7′H-spiro[isoxazole-5,6′-[2,7]methanopyrido[1,2-a][1,4]diazonin]-12′-yl 2-(4-(phosphonooxy)phenyl)acetate] |  | 27.8 | 2.01 |
| 3.09 | CC1=NO[C@@]2(CC[C@H](C)N3C[C@H]2n2cc(C(=O)NCc4ccc(F)cc4F)c(=O)c(OCOC(=O)N(C)c4ncccc4CN(CC(=O)N[C@@H](CC(=O)O)C(=O)O)C(=O)OCOP(=O)(O)O)c2C3=O)C1 [Compound 36, N-((2-((((((3′S,5S,7′R)-10′-((2,4-difluorobenzyl)carbamoyl)-3,3′-dimethyl-1′,11′-dioxo-1′,4′,5′,11′-tetrahydro-3′H,4H,7′H-spiro[isoxazole-5,6′-[2,7]methanopyrido[1,2-a][1,4]diazonin]-12′-yl)oxy)methoxy)carbonyl)(methyl)amino)pyridin-3-yl)methyl)-N-(((phosphonooxy)methoxy)carbonyl)glycyl-L-aspartic acid] | 22 |  |  |
|  | CC1=NO[C@@]2(CC[C@H](C)N3C[C@H]2n2cc(C(=O)NCc4ccc(F)cc4F)c(=O)c(OCOC(=O)CC(C)(C)c4c(CC(=O)N[C@@H](CCC(=O)O)C(=O)O)cc(C)cc4OP(=O)(O)O)c2C3=O)C1 [Compound 42, (2-(2-(4-((((3′S,5S,7′R)-10′-((2,4-difluorobenzyl)carbamoyl)-3,3′-dimethyl-1′,11′-dioxo-1′,4′,5′,11′-tetrahydro-3′H,4H,7′H-spiro[isoxazole-5,6′-[2,7]methanopyrido[1,2-a][1,4]diazonin]-12′-yl)oxy)methoxy)-2-methyl-4-oxobutan-2-yl)-5-methyl-3-(phosphonooxy)phenyl)acetyl)-L-glutamic acid] |  | 15.7 | 1.9 |
| 1.69 | CC1=NO[C@@]2(CC[C@H](C)N3C[C@H]2n2cc(C(=O)NCc4ccc(F)cc4F)c(=O)c(OCOC(=O)O[C@@H]4CCCC[C@@H]4OP(=O)(O)O)c2C3=O)C1 [Compound 50, (((3′S,5S,7′R)-10′-((2,4-difluorobenzyl)carbamoyl)-3,3′-dimethyl-1′,11′-dioxo-1′,4′,5′,11′-tetrahydro-3′H,4H,7′H-spiro[isoxazole-5,6′-[2,7]methanopyrido[1,2-a][1,4]diazonin]-12′-yl)oxy)methyl ((1R,2S)-2-(phosphonooxy)cyclohexyl) carbonate] | 21.6 |  |  |
| 1.47 | CC1=NO[C@@]2(CC[C@H](C)N3C[C@H]2n2cc(C(=O)NCc4ccc(F)cc4F)c(=O)c(OCOC(=O)OC[C@@H]4CCCC[C@@H]4OP(=O)(O)O)c2C3=O)C1 [Compound 52, (((3′S,5S,7′R)-10′-((2,4-difluorobenzyl)carbamoyl)-3,3′-dimethyl-1′,11′-dioxo-1′,4′,5′,11′-tetrahydro-3′H,4H,7′H-spiro[isoxazole-5,6′-[2,7]methanopyrido[1,2-a][1,4]diazonin]-12′-yl)oxy)methyl (((1S,2S)-2-(phosphonooxy)cyclohexyl)methyl) carbonate] | 13 |  |  |
|  | CC1=NO[C@@]2(CC[C@H](C)N3C[C@H]2n2cc(C(=O)NCc4ccc(F)cc4F)c(=O)c(OCOC(=O)N(C)c4ncccc4CN(CC(=O)N[C@@H](CCC(=O)O)C(=O)O)C(=O)OCOP(=O)(O)O)c2C3=O)C1 [Compound 60, N-((2-((((((3′S,5S,7′R)-10′-((2,4-difluorobenzyl)carbamoyl)-3,3′-dimethyl-1′,11′-dioxo-1′,4′,5′,11′-tetrahydro-3′H,4H,7′H-spiro[isoxazole-5,6′-[2,7]methanopyrido[1,2-a][1,4]diazonin]-12′-yl)oxy)methoxy)carbonyl)(methyl)amino)pyridin-3-yl)methyl)-N-(((phosphonooxy)methoxy)carbonyl)glycyl-L-glutamic acid] |  | 13.8 | 1.59 |
|  | CCCCCCCCCCCCCC(=O)NCc1ccccc1C(=O)Oc1c2n(cc(C(=O)NCc3ccc(F)cc3F)c1=O)[C@@H]1CN(C2=O)[C@@H](C)CC[C@]12CC(OC)=NO2 [Compound 101, (3′S,5S,7′R)-10′-((2,4-difluorobenzyl)carbamoyl)-3-methoxy-3′-methyl-1′,11′-dioxo-1′,4′,5′,11′-tetrahydro-3′H,4H,7′H-spiro[isoxazole-5,6′-[2,7]methanopyrido[1,2-a][1,4]diazonin]-12′-yl 2-(tetradecanamidomethyl)benzoate] | ≥ 50 |  |  |
|  | CCCCCCCCCCCCCC(=O)NCc1ccccc1C(=O)Oc1c2n(cc(C(=O)NCc3ccc(F)cc3F)c1=O)[C@@H]1CN(C2=O)[C@@H](C)CC[C@]12CC(C)=NO2 [Compound 102, (3′S,5S,7′R)-10′-((2,4-difluorobenzyl)carbamoyl)-3,3′-dimethyl-1′,11′-dioxo-1′,4′,5′,11′-tetrahydro-3′H,4H,7′H-spiro[isoxazole-5,6′-[2,7]methanopyrido[1,2-a][1,4]diazonin]-12′-yl 2-(tetradecanamidomethyl)benzoate] | 31.8 |  |  |
